Holding throughout (type): in vivo, BALB/c mice
The subject of experiment [1] is M109 tumor cells (lung adenocarcinoma). Description: Lung adenocarcinoma model: survival of mice injected intraperitoneally with M109 tumor cells, IL-2 in MLV. The conditions noted are these: 5×10^5 M109 cells i.p. day 0, ADR or DOXIL 8 mg/kg i.v. day 7, MLV-IL-2 50,000 CU/mouse i.p. days 10, 13, 16. The method, then: B1. Lung Adenocarcinoma Model: IL-2 in MLV. Six groups of BALB/c mice were injected intraperitoneally with 5×10^5 M109 tumor cells (day 0). Free adriamycin or DOXIL®, respectively, were administered intravenously on day 7 at a dose of 8 mg/kg, and intraperitoneal cytokine treatment was initiated 3 days later. Liposomal IL-2 (formulation B; MLV DMPC/DMPG (9:1 mole ratio) liposomes containing IL-2) was given once daily (50,000 CU/mouse) on days 10, 13 and 16. Control groups received no treatment or received the IL-2 treatment alone.
(§1) Each group, consisting of 8-9 mice, was inspected for survival up to 100 days after tumor inoculation.

For experiment [2] the test system is unchanged. Briefly: Metastatic lung adenocarcinoma model: survival of mice injected intravenously with M109 tumor cells, IL-2 in PEGylated SUV. The conditions noted are these: 5×10^5 M109 cells i.v. day 0, ADR or DOXIL 8 mg/kg i.v. day 7, SSL-IL-2 50,000 CU/mouse i.v. days 11, 14, 17. How it is done:
B2. Metastatic Lung Adenocarcinoma Model: IL-2 in MLV (Formulation B) and PEG-Derivatized SUV (SSL). In this experiment, BALB/c mice were injected intravenously with 5×10^5 M109 tumor cells (day 0). Free adriamycin or DOXIL ®, respectively, were administered intravenously on day 7 (8 mg/kg), followed […] by intravenous cytokine treatment. Liposomal IL-2 (Formulation A; PEGylated SUV containing IL-2) was given once daily (50,000 CU/mouse) on days 11, 14 and 17. Control groups received no treatment or received the IL-2 treatment alone.
as §1

Experiment [3] deals with C26 colon carcinoma cells. Briefly: Subcutaneous colon carcinoma model (footpad), IL-2 in MLV. The conditions noted are these: 10^5 C26 cells in footpad, 8 mg/kg free or liposomal adriamycin i.v. day 7, IL-2 i.p. The method, then: B3. Subcutaneous colon carcinoma model: IL-2 in MLV. In this test, 7 groups of BALB/c mice were injected in the footpad with 10^5 C26 colon carcinoma cells.

The test system of the next experiment is M109 tumor cells. Briefly: Second, more extensive M109 study: free or liposomal adriamycin with free IL-2, SSL-IL-2 or MLV-IL-2. To be noted: 5×10^5 M109 cells i.p.; ADR or DOXIL 8 mg/kg i.p. day 7; IL-2 50,000 CU/mouse i.v. days 10, 13, 16; observed up to 120 days. How it is done: In a second, more extensive study, nine groups of BALB/c mice were injected intraperitoneally with 5×10^5 M109 tumor cells. Free adriamycin or DOXIL® (8 mg/kg) were administered intraperitoneally 7 days later, followed 3 days later by intravenous cytokine treatment. The cytokine, given once daily (50,000 CU/mouse) on days 10, 13 and 16, consisted of free IL-2, IL-2 in Formulation A (Stealth® PEGylated SUV), or IL-2 in Formulation B (9:1 molar DMPC/DMPG MLV).
Each group, consisting of 8 mice, and an untreated control group of 11 mice, were inspected for survival up to 120 days after tumor inoculation.

Turning to `COc1cccc2c1C(=O)c1c(O)c3c(c(O)c1C2=O)C[C@@](O)(C(=O)CO)C[C@@H]3O[C@H]1C[C@H](N)[C@H](O)[C@H](C)O1` [ADR, adriamycin (doxorubicin)], the entries for the “MEDIAN SURVIVAL” value (in experiment [1] (observed up to 100 days); in experiment [2] (observed up to 100 days); with M109 tumor cells) were 42 days, 56 days and 100 days, respectively. Also, the “NUMBER OF SURVIVING MICE/TOTAL” value in experiment [1] (survival up to 100 days) is 0/8; in experiment [2] (survival up to 100 days) it was 2/8. Further, in experiment [3] (day 30), the “NUMBER OF TUMOR FREE MICE, DAY 30” value is 0/7. Also, the “NUMBER OF TUMOR FREE MICE, DAY 65” value in experiment [3] (day 65) was 0/7. The “NUMBER OF TUMOR FREE MICE/TOTAL” value with M109 tumor cells was 4/8.

Values taken from patent US6787132B1, “Combined chemo-immunotherapy with liposomal drugs and cytokines” (Yissum Research Development Company of the Hebrew …, priority 1997, dated 2004).
